# Data taken from US6255273A, “Hydrofluoropolyether-based azeotropic or near azeotropic compositions” (Ausimont S.p.A., priority 1998, dated 2001).
# Experiments:
# [1] = oily product removal from molded circuits, oil (4); conditions: 23° C.; methyl alcohol mixture 51° C., tDCE mixture 25° C., acetone mixture 66° C.; 5 min dipping
# Procedure: (§1) The oily product removal capacity from molded circuits has been verified according to the following method: a known amount of an oily product is uniformly spread on the molded circuit surface having 35×19 mm sizes; 0.100 g of oil are spread on a single surface of the circuit, then the article is dipped in the solution to be tested.
# (§2) After 5 minutes of dipping, the circuit is allowed to drie for further 5 minutes at room temperature so as to remove the solvent traces and then it is weighed again on an analytical balance.
# (§3) The following oily products have been used:
# 4) Mineral-Clavus 32 oil by SHELL.
# (§4) Tests are carried out at room temperature (23-250° C.) and tests at the boiling temperature of the solvent mixtures. In the latter case the solvent is placed in a vessel equipped with a refrigerant under reflux which recovers the vapour of the boiling solution.
# (§5) In all the tests 30 ml of solvent solution have been used.
# [2] = oily product removal from molded circuits, oil (3); conditions: 23° C.; methyl alcohol mixture 51° C., tDCE mixture 25° C., acetone mixture 66° C.; 5 min dipping
# Procedure: as §1, §2, §3
# 3) Ester-Icematic SW 100 oil by CASTROL
# as §4, §5
# [3] = oily product removal from molded circuits, oil (1); conditions: 23° C.; methyl alcohol mixture 51° C., tDCE mixture 25° C., acetone mixture 66° C.; 5 min dipping
# Procedure: as §1, §2, §3
# 1) Alkyl Benzene-Zerice S 46 oil by ESSO
# as §4, §5
# [4] = background; cited from earlier work
# [5] = water removal from glass surfaces; conditions: with 600 ppm by weight surfactant; CFC 113 42° C., HCFC123 mixture 23° C., tDCE mixture 35° C.
# Procedure: In a cylindrical container having a 46 cm diameter and a 56 cm height, equipped with a neoprene closing stopper (cover), 30 ml of the solution to be tested are introduced.
# The compositions, indicated in Table 22, used for the water removal tests are prepared in a 50 ml flask and are heated in a thermostatic bath at a temperature of about 5° C. lower than the boiling temperature of the solution itself.
# After heating the solution is transferred in the test container equipped with cover.
# On a glass surface having 37×25×1 mm sizes, 0.015 g of water are deposited in the form of small drops.
# The glass is placed on a metal frame which is used to carry out the article dipping in the liquid phase of the solution to be tested.
# The container for the test is opened and the frame is slowly dipped into the solution; the frame upper part runs in a hole made in the rubber cover (cap) which closes the container.
# When two minutes have elapsed, the frame is lifted from the liquid phase, by letting run the external end part through the hole present in the cover (cap); the glass will remain exposed to the solution vapours for one minute, then it is removed from the container and weighed.
# [6] = tested on: rats; assay: Acute toxicity in rats by inhalation; format: in vivo; conditions: 4 hours
# [7] = oily product removal from molded circuits, oil (2); conditions: 23° C.; methyl alcohol mixture 51° C., tDCE mixture 25° C., acetone mixture 66° C.; 5 min dipping
# Procedure: as §1, §2, §3, §4, §5
# [8] = Kauri-butanol index, modified ASTM D1133-86; format: physicochemical
# Procedure: The solvent effect of the HFPE-based mixtures is evaluated by determination of the Kauri-butanol index, reported in Table 19, according to ASTM […]-86 method. […] The Kauri-butanol solution is stirred by a magnetic stirrer. The end titration point is identified in connection with a diffused turbidity which appears in the Kauri-butanol solution due to the resin separation.
# [9] = Hydrofluoropolyether chemical-physical characteristics (Table 1); format: physicochemical; conditions: for BOILING TEMPERATURE / Evaporation latent heat: at 1.013 bar; for Isotherm evaporation speed / Surface pressure: at 20° C.; for Liquid density: at 25° C.; for Flammability in air: in air (% volume)
# [10] = evaluation of the boiling temperature at the pressure of 1.013 bar (binary mixtures); format: physicochemical
# [11] = tested on: rats; assay: Acute toxicity in rats per os; format: in vivo; set-up: unit not given here
# [12] = Table 6, HCF2 OCF2 OCF2 H/HFC 365 mfc, number in label = % by wt. HCF2 OCF2 OCF2 H
# [13] = Table 10, HCF2 OCF2 OCF2 H/tDCE, number in label = % by wt. HCF2 OCF2 OCF2 H
# [14] = Table 15, HCF2 OCF2 CF2 OCF2 H/tDCE, number in label = % by wt. HCF2 OCF2 CF2 OCF2 H
# [15] = Table 12, HCF2 OCF2 CF2 OCF2 H/acetone, number in label = % by wt. HCF2 OCF2 CF2 OCF2 H
# [16] = Table 13, HCF2 OCF2 CF2 OCF2 H/methyl alcohol, number in label = % by wt. HCF2 OCF2 CF2 OCF2 H
# [17] = Table 16, HCF2 OCF2 CF2 OCF2 H/ethyl alcohol, number in label = % by wt. HCF2 OCF2 CF2 OCF2 H
# [18] = Table 2, HCF2 OCF2 OCF2 H/HCFC 123, number in label = % by wt. HCF2 OCF2 OCF2 H
# [19] = Table 5, HCF2 OCF2 OCF2 H/acetone, number in label = % by wt. HCF2 OCF2 OCF2 H
# [20] = Table 7, HCF2 OCF2 OCF2 H/HFC 356 ffa, number in label = % by wt. HCF2 OCF2 OCF2 H
# [21] = Table 8, HCF2 OCF2 OCF2 H/metoxymethyl methyl ether, number in label = % by wt. HCF2 OCF2 OCF2 H
smiles,measurement,setting,value
"FC(F)(Cl)C(F)(Cl)Cl [CFC 113, 1,1,2-trichloro-1,2,2-trifluoroethane]","Percentage of removed oil, oil (4) Mineral-Clavus 32",[1],100 % by weight
same,"Percentage of removed oil, oil (3) Ester-Icematic SW 100",[2],100 % by weight
same,"Percentage of removed oil, oil (1) Alkyl Benzene-Zerice S 46",[3],100 % by weight
same,flammability,[4],non flammable
same,stability,[4],stable
same,toxicity,[4],non toxic
same,removed water,[5],100 % by weight
same,"Acute toxicity in rats by inhalation, LC50",[6],50000 ppmv/4 hours
same,"Percentage of removed oil, oil (2) FluoroSilicone-FS 1265",[7],99.5 % by weight
same,Kauri-butanol index,[8],31
same,BOILING TEMPERATURE,[9],47.55 °C
same,Evaporation latent heat,[9],144 kJ/kg
same,Isotherm evaporation speed,[9],1 mg/min
same,Surface pressure,[9],18.1 dynes/cm
same,Liquid density,[9],1.56 g/mL
same,Flammability in air,[9],non
"CC(F)(F)CC(F)(F)F [HFC 365 mfc, 1,1,1,3,3-pentafluorobutane, reference compound]",BOILING TEMPERATURE,[10]; [12],40.09 °C
"Cl/C=C/Cl [tDCE, trans 1,2-dichloroethylene, reference compound]",BOILING TEMPERATURE,[10]; [13],46.70 °C
same,BOILING TEMPERATURE,[10]; [14],46.79 °C
"FC(F)OC(F)(F)C(F)(F)OC(F)F [HFPE2, 1-difluoromethoxy-1,1,2,2-tetrafluoroethyl difluoromethyl ether]","Acute toxicity in rats per os, LD50",[11],> 5000
same,BOILING TEMPERATURE,"[10]; Table 11, HCF2 OCF2 CF2 OCF2 H/n-pentane, number in label = % by wt. HCF2 OCF2 CF2 OCF2 H",58.21 °C
same,BOILING TEMPERATURE,[10]; [15],58.21 °C
same,BOILING TEMPERATURE,[10]; [16],58.21 °C
same,BOILING TEMPERATURE,"[10]; Table 14, HCF2 OCF2 CF2 OCF2 H/n-hexane, number in label = % by wt. HCF2 OCF2 CF2 OCF2 H",58.21 °C
same,BOILING TEMPERATURE,[10]; [14],58.21 °C
same,BOILING TEMPERATURE,[10]; [17],58.21 °C
same,"Acute toxicity in rats by inhalation, LC50",[6],> 32000 ppmv/4 hours
same,BOILING TEMPERATURE,[9],58.21 °C
same,Evaporation latent heat,[9],139 kJ/kg
same,Isotherm evaporation speed,[9],0.6 mg/min
same,Surface pressure,[9],15.5 dynes/cm
same,Liquid density,[9],1.60 g/mL
same,Flammability in air,[9],non flammable
CC(F)(Cl)Cl [HCFC 141b],flammability,[4],moderately flammable
"FC(F)OC(F)(F)OC(F)F [HFPE1, difluoromethoxy-bis(difluoromethyl ether)]","Acute toxicity in rats per os, LD50",[11],> 5000
same,BOILING TEMPERATURE,[10]; [18],35.39 °C
same,BOILING TEMPERATURE,"[10]; Table 3, HCF2 OCF2 OCF2 H/n-pentane, number in label = % by weight HCF2 OCF2 OCF2 H",35.39 °C
same,BOILING TEMPERATURE,"[10]; Table 4, HCF2 OCF2 OCF2 H/iso-pentane, number in label = % by wt. HCF2 OCF2 OCF2 H",35.39 °C
same,BOILING TEMPERATURE,[10]; [19],35.39 °C
same,BOILING TEMPERATURE,[10]; [12],35.39 °C
same,BOILING TEMPERATURE,[10]; [20],35.39 °C
same,BOILING TEMPERATURE,[10]; [21],35.39 °C
same,BOILING TEMPERATURE,"[10]; Table 9, HCF2 OCF2 OCF2 H/n-hexane, number in label = % by wt. HCF2 OCF2 OCF2 H",35.39 °C
same,BOILING TEMPERATURE,[10]; [13],35.39 °C
same,"Acute toxicity in rats by inhalation, LC50",[6],> 32000 ppmv/4 hours
same,BOILING TEMPERATURE,[9],35.39 °C
same,Evaporation latent heat,[9],165 kJ/kg
same,Isotherm evaporation speed,[9],1.5 mg/min
same,Surface pressure,[9],14.0 dynes/cm
same,Liquid density,[9],1.54 g/mL
same,Flammability in air,[9],non flammable
"CCO [ethyl alcohol, reference compound]",BOILING TEMPERATURE,[10]; [17],78.50 °C
"FC(F)(F)CCC(F)(F)F [HFC 356 ffa, 1,1,1,4,4,4-hexafluorobutane, reference compound]",BOILING TEMPERATURE,[10]; [20],24.71 °C
"CO [methyl alcohol, reference compound]",BOILING TEMPERATURE,[10]; [16],65.00 °C
"FC(F)(F)C(Cl)Cl [HCFC 123, 1,1-dichloro-2,2,2-trifluoroethane, reference compound]",BOILING TEMPERATURE,[10]; [18],27.54 °C
"COCOC [metoxymethyl methyl ether, methoxymethyl methyl ether, reference compound]",BOILING TEMPERATURE,[10]; [21],41.96 °C
"CC(C)=O [acetone, dimethyl ketone, reference compound]",BOILING TEMPERATURE,[10]; [19],56.50 °C
same,BOILING TEMPERATURE,[10]; [15],56.50 °C
